Results reported in patent publication US20050070511A1, “2-methylene-19-nor-vitamin D2 compounds” (Wisconsin Alumni Research Foundation, priority 2003, published 2005).

Legend:
[1] = test system: Male, weanling Sprague-Dawley rats; experiment: Intestinal calcium transport in vitamin D-deficient rats; type: in vivo, rat; conditions: for Intestinal Calcium Transport (S/M): rats on low Ca diet, i.p. daily, average ± SE from 5 animals; for Activity in stimulating intestinal calcium transport compared with 1α,25-dihydroxyvitamin D3: FIG. 3, in words
Description: (§1) Male, weanling Sprague-Dawley rats were placed on Diet 11 (0.47% Ca)+AEK for 11 days, followed by Diet 11 (0.02% Ca)+AEK for 31 days. Dosing (i.p.) began 7 days prior to sacrifice. Doses were given on a daily basis, 24 hours apart. The first 10 cm of the intestine was collected for gut transport studies and serum was collected for bone Ca mobilization analysis. The results are reported in TABLE 1 and illustrated in the graph of FIGS. 3 and 4.

[2] = test system: Male, weanling Sprague-Dawley rats; experiment: Serum calcium (bone calcium mobilization) in vitamin D-deficient rats; type: in vivo, rat; conditions: for Serum Calcium (bone calcium mobilization): rats on low Ca diet, i.p. daily, average ± SE from 5 animals; for Mobilization of calcium from bone compared with 1α,25-dihydroxyvitamin D3: FIG. 4, in words
Description: as §1
The in vivo tests of serum calcium of rats on a zero calcium diet provides an insight into […] or bone activity of the 2-methylene-24(S) and 24(R) derivatives of 19-nor-1α,25-dihydroxyvitamin D2. […] At the same time, the activity of the 2-methylene-24(S) and 24(R) derivatives of 19-nor-1α,25-dihydroxyvitamin D2 on intestinal calcium transport is approximately equal to that of 1,25-(OH)2D3 (FIG. 3).

[3] = molecular target: T1, vitamin D pig intestinal nuclear receptor (Sus scrofa, UniProt A3RGC1); experiment: Competitive binding of [3H]-1α,25-(OH)2-D3 to the porcine intestinal vitamin D receptor; conditions: FIG. 1, in words
T1 construct: the vitamin D pig intestinal nuclear receptor; from tissue; host or cells: pig intestine (nuclear receptor preparation)
T1 sequence (A3RGC1 1-427): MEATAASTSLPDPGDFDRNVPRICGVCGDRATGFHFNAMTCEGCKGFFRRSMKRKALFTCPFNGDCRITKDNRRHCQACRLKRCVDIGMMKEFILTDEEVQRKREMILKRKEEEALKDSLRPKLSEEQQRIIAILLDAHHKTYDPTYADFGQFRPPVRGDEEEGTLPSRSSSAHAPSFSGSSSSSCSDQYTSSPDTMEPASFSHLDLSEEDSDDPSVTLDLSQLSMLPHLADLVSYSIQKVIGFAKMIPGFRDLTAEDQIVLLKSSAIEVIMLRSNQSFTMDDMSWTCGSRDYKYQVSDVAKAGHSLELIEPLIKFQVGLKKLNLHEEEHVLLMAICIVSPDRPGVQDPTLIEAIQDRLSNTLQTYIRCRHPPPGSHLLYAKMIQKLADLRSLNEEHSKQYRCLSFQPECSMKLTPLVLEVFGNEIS
Description: FIG. 1 is a graph illustrating the relative activity of 2-methylene-19-nor-24(S)-20(R)-1α,25-dihydroxyvitamin D2, 2-methylene-19-nor-24(R)-20(R)-1α,25-dihydroxyvitamin D2 and 1α,25-dihydroxyvitamin D3 to compete for binding of [^3H]-1α,25-(OH)2-D3 to the vitamin D pig intestinal nuclear receptor.
Competitive binding of the analogs to the porcine intestinal receptor was carried out by the method described by Dame et al. (Biochemistry 25, 4523-4534, 1986).

HL-60 cells = experiment: Differentiation of HL-60 promyelocytes into monocytes; type: cell-based; conditions: FIG. 2, in words
Description: FIG. 2 is a graph illustrating the percent HL-60 cell differentiation as a function of the concentration of 2-methylene-19-nor-24(S)-20(R)-1α,25-dihydroxyvitamin D2, 2-methylene-19-nor-24(R)-20(R)-1α,25-dihydroxyvitamin D2, and 1α,25-dihydroxyvitamin D3.
The differentiation of HL-60 promyelocytic into monocytes was determined as described by Ostrem et al. (J. Biol. Chem. 262, 14164-14171, 1987).

Binding to the vitamin D receptor compared with 1,25(OH)2D3 [3]	SMILES	Intestinal Calcium Transport (S/M) ([1]; 260 pmol/day/7 days)	Serum Calcium (bone calcium mobilization) ([2]; 260 pmol/day/7 days) [mg/100 mL]	Activity in stimulating intestinal calcium transport compared with 1α,25-dihydroxyvitamin D3 [1]	Intestinal Calcium Transport (S/M) ([1]; 130 pmol/day/7 days)	Mobilization of calcium from bone compared with 1α,25-dihydroxyvitamin D3 [2]	Serum Calcium (bone calcium mobilization) ([2]; 130 pmol/day/7 days) [mg/100 mL]	HL-60 differentiation potency compared with 1,25(OH)2D3 (HL-60 cells)
–	C=C1/C(=C\C=C2/CCC[C@]3(C)[C@@H]([C@H](C)CCCC(C)(C)O)CC[C@@H]23)C[C@@H](O)C[C@@H]1O [1,25-(OH)2D3, 1α,25-dihydroxyvitamin D3, reference compound]	12.54 ± 1.83	5.72 ± 0.14	–	–	–	–	–
more active than 1,25(OH)2D3	C=C1[C@H](O)CC(=C/C=C2\CCC[C@@]3(C)C2CCC3[C@H](C)/C=C/[C@@H](C)C(C)(C)O)C[C@H]1O (stereo partly drawn) [(20R,24R)D2, (20R,24R)-1α,25-dihydroxy-2-methylene-19-nor-vitamin D2]	11.58 ± 0.66	5.02 ± 0.14	activity about the same as that of 1α,25-dihydroxyvitamin D3	12.2 ± 1.22	minimal activity on bone	4.5 ± 0.05	significantly more potent than 1,25(OH)2D3
more active than 1,25(OH)2D3	C=C1[C@H](O)CC(=C/C=C2\CCC[C@@]3(C)C2CCC3[C@H](C)/C=C/[C@H](C)C(C)(C)O)C[C@H]1O (stereo partly drawn) [(20R,24S)D2, (20R,24S)-1α,25-dihydroxy-2-methylene-19-nor-vitamin D2]	11.14 ± 0.74	5.04 ± 0.14	activity about the same as that of 1α,25-dihydroxyvitamin D3	11.62 ± 0.69	minimal activity on bone	4.7 ± 0.13	significantly more potent than 1,25(OH)2D3
